The assay concerns ovulation. The assay can be described thus: Ovulation inducing effect in proestrus rats (subcutaneous). The format is in vivo, F. Wistar-Imamichi rats. The conditions noted are these: subcutaneous injection at 4:00 p.m. on proestrus day; pentobarbital 30 mg/kg i.p. at 1:00 p.m.; five rats per dosage. Here is the method: Examination of ovulation inducing effect
F. Wistar-Imamichi rats (body weight: around 250 g) were bred at room temperature (23° ±1° C) under an artificial light (on at 5:00 a.m. and off at 7:00 p.m.). Among these rats, the rats which had more than three times of four days sexual cycle were subjected to the test.
At 1:00 p.m. on proestrus days, pentobarbital sodium salt was intraperitoneally administered into each of rats (in the amount of 30 mg/kg). Then, at 4:00 p.m. of the same day, a test sample dissolved in 0.1 ml of isotonic sodium chloride solution was subcutaneously injected. Between noon and 1:00 p.m. of the next day, the rats were sacrified and the oviduct was immediately taken out. The oviduct was then placed between a couple of slide glasses and examined for ova through a microscope. The test was conducted by employing five rats for a certain dosage of test samples.

As to `CCCC[C@@H](NC(=O)[C@H](Cc1ccc(O)cc1)NC(=O)[C@H](CO)NC(=O)[C@H](Cc1c[nH]c2ccccc12)NC(=O)[C@H](Cc1c[nH]cn1)NC(=O)CN(C)C(C)=O)C(=O)N[C@@H](CC(C)C)C(=O)N[C@@H](CCCNC(=N)N)C(=O)N1CCC[C@H]1C(=O)NCCF` [Compound B, N-Acetyl-N-methylglycyl-L-histidyl-L-tryptophyl-L-seryl-L-tyrosyl-D-norleucyl-L-leucyl-L-arginyl-L-proline-2-fluoroethylamide], the “ED50 (ovulation inducing effect)” value came to 0.0125 μg/body. In the case of `CC(C)C[C@H](NC(=O)CNC(=O)[C@H](Cc1ccc(O)cc1)NC(=O)[C@H](CO)NC(=O)[C@H](Cc1c[nH]c2ccccc12)NC(=O)[C@H](Cc1c[nH]cn1)NC(=O)[C@@H]1CCC(=O)N1)C(=O)N[C@@H](CCCNC(=N)N)C(=O)N1CCC[C@H]1C(=O)NCC(N)=O` [Natural-type LH-RH (synthesized), L-pyroglutamyl-L-histidyl-L-tryptophyl-L-seryl-L-tyrosylglycyl-L-leucyl-L- arginyl-L-prolylglycine amide, reference compound] it was 0.134 μg/body; in that of “N-Acetyl-N-methylglycyl-L-histidyl-L-tryptophyl-L-seryl-L-tyrosyl-D-alanyl-L-leucyl-L-arginyl-L-prolineethylamide [Compound A]”, 0.018 μg/body.

Source of the values: US4010149A, “Analogs of LH-RH and process for preparing the same” (Sankyo Company Limited, priority 1974, dated 1977).
